# From patent publication US20210161855A1, “5-LIPOXYGENASE ANTAGONISTS” (INSTITUTO DE MEDICINA MOLECULAR JOÃO LOBO ANTUNES, priority 2017, published 2021)
# Columns and labels:
# HEL = assay: Cell viability, AML model HEL (FIG. 9a); assay type: cell-based; settings: Homo sapiens, n=3
# HEL-GFP cells = assay: Xenograft model of human AML, HEL-GFP cells in NSG mice; assay type: in vivo
# Procedure: The xenograft model of human AML used relies in the intra-bone marrow injection of 5×10^5 HEL-GFP cells into the right tibia of previously irradiated (200 rad) NSG mice. Upon tumor trigger in the blood mouse are randomly assigned for treatment with 1 (50 mg/kg intra-peritoneal) or vehicle.
# 5-LO [1] = target: T1, 5-LO (Homo sapiens, UniProt P09917); assay: Cell-free activity assay of human recombinant 5-LO; assay type: biochemical; parameters: made in house; host or cells: E. coli (BL21), plasmid pT3-5-LO
# T1 sequence (P09917 1-674): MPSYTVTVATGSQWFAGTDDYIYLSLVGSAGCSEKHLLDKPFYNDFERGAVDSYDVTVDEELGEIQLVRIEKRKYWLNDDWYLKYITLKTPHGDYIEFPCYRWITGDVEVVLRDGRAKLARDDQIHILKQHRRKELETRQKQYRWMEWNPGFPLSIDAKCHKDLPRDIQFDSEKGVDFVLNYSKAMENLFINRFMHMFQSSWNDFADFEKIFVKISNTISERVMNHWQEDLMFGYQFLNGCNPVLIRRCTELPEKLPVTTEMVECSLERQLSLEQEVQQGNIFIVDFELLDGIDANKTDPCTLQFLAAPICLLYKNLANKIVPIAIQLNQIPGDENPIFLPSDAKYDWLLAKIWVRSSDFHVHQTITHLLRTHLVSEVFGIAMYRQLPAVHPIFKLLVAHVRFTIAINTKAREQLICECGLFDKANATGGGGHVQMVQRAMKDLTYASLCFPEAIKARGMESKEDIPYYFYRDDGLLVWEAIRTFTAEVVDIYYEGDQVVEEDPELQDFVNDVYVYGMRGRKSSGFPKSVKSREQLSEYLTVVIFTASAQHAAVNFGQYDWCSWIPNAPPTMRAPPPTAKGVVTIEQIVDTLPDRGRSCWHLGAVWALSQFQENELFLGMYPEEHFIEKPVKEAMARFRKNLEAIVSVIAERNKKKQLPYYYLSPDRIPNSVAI
# Procedure: E. coli(BL21) was transformed with pT3-5-LO plasmid, and recombinant 5-LO protein was expressed at 30° C. as described.^34 Cells were lysed in 50 mM triethanolamine/HCl pH 8.0, 5 mM EDTA, 1 mM phenylmethanesulphonyl fluoride, soybean trypsin inhibitor (60 μg/mL), and lysozyme (1 mg/mL), homogenized by sonication (3×15 s), and centrifuged at 40,000×g for 20 min at 4° C. The 40,000×g supernatant (S40) was applied to an ATP-agarose column to partially purify 5-LO as described.^70 Aliquots of semi-purified 5-LO (0.5 μg) were diluted with 1 mL ice-cold PBS containing 1 mM EDTA. Samples were pre-incubated with the test compound or vehicle (0.1% DMSO) with or without Triton X-100 and/or 1 mM DTT, as indicated. After 10 min at 4° C., samples were pre-warmed for 30 s at 37° C., and 2 mM CaCl2 plus the indicated concentrations of arachidonic acid (AA) were added to start the formation of 5-LO products. After 10 min, the reaction was stopped by addition of one volume of ice-cold methanol, and the formed 5-LO products were analyzed by RP-HPLC as described.^71 5-LO products include the all-trans isomers of LTB4 (tr-LTB4 isomers) as well as 5(S)-hydroperoxy-6-trans-8,11,14-cis-eicosatetraenoic acid (5-HPETE) and its corresponding alcohol 5(S)-hydroxy-6-trans-8,11,14-cis-eicosatetraenoic acid (5-HETE). For phosphatidylcholine competition assays (3 or 30 μg/ml PC) samples were pre-incubated on ice with β-lapachone with or without 1 mM DDT or vehicle (0.1% DMSO) for 10 minutes. After addition of 2 mM CaCl2) and 20 μM AA the incubation was continued for 10 minutes at 37° C. and after that stopped with methanol.
# (§1) Data are expressed as mean±S.E.M. IC50 values were calculated from averaged measurements at 6 different concentrations of the compound by nonlinear regression using GraphPad Prism software (San Diego, Calif.) one site binding competition. Statistical evaluation of the data was performed by one-way ANOVA followed by a Tukey-Kramer post-hoc test for multiple comparisons respectively. A p value<0.05 (*) was considered significant.
# 5-LO [2] = target: T1, 5-LO; assay: 5-LO activity in neutrophil homogenates; assay type: biochemical; parameters: endogenous in cells; host or cells: neutrophils isolated from peripheral blood of healthy adult volunteers; intact or sonicated homogenates; settings: n=3
# Procedure: Peripheral blood (University Hospital Jena, Germany) was withdrawn from healthy adult volunteers with consent that had not taken any anti-inflammatory drugs during the last 10 days, by venipuncture in heparinized tubes (16 IE heparin/mL blood). The blood was centrifuged at 4000 g for 20 min at 20° C. for preparation of leukocyte concentrates. Leukocyte concentrates were then subjected to dextran sedimentation and centrifugation on lymphocyte separation medium (LSM 1077, PAA, Colbe, Germany). Contaminating erythrocytes of pelleted neutrophils were removed by hypotonic Iysis. Neutrophils were then washed twice in ice-cold PBS and finally resuspended in PBS pH 7.4 containing 1 mg/mL glucose or in PBS pH 7.4 containing 1 mg/mL glucose plus 1 mM CaCl2 (PGC buffer) (purity>96-97%).
# For analysis of 5-LO product formation in corresponding homogenates, neutrophils were resuspended in PBS containing 1 mM EDTA for 5 min at 4° C. and sonicated (4×10 s, 4° C.). Homogenates, corresponding to 5×10^6 cells/mL, were incubated with the test compounds or vehicle (0.1% DMSO) with or without 1 mM DTT for 15 min at 4° C., pre-warmed for 30 s at 37° C., and the reaction was started by the addition of 2 mM CaCl2 plus the indicated concentrations of AA (routinely 20 μM). The reaction was stopped after 10 min and the samples were analyzed as described for intact cells above.
# as §1
structure (smiles),measurement,setting,value
"CC1(C)CCC2=C(O1)c1ccccc1C(=O)C2=O [Compound 1, 3,4-dihydro-2,2-dimethyl-2H-naphtho[1,2-b]pyran-5,6-dione]",IC50,HEL,900 nM
same,Overall survival,HEL-GFP cells; 50 mg/kg intra-peritoneal,significantly increased overall survival
same,Tumour burden in the blood,"HEL-GFP cells; 50 mg/kg intra-peritoneal, day 9",tendency for lower burden
same,"Tumour burden in organs (liver, spleen and lung)","HEL-GFP cells; longest-living treated mouse, sacrificed at day 30, versus non-treated controls",lower tumour burden in all the analysed organs
same,IC50,"5-LO [1]; 3 μg/mL phosphatidylcholine, n=3, read-out: IC50 (3 μg/mL, PC), competition assay with phosphatidylcholine",100 nM
same,IC50,"5-LO [1]; 30 μg/mL phosphatidylcholine, n=3, read-out: IC50 (30 μg/mL, PC), competition assay with phosphatidylcholine",1000 nM
same,IC50,"5-LO [1]; 1 mM DTT, 0.01% Triton X100, n=3, read-out: IC50 (with Triton X100), inhibition of 5-LO",90 nM
same,IC50,"5-LO [1]; 1 mM DTT, no Triton X100, n=3, read-out: IC50 (without Triton X100), inhibition of 5-LO",120 nM
same,IC50,"5-LO [1]; 1 mM dithiothreitol (DTT), n=3, read-out: IC50 (with DTT), inhibition of 5-LO in a cell-free assay",240 nM
same,IC50,"5-LO [1]; absence of DTT, n=3, read-out: IC50 (without DTT), inhibition of 5-LO in a cell-free assay",> 30000 nM
same,Effect of arachidonic acid concentration on potency,5-LO [1]; arachidonic acid 2.5-40 μM,only to minor alterations of the potency
same,5-LO modulation in absence of dithiothreitol,"5-LO [1]; cell-free, no DTT, up to 30 μM",negligible 5-LO modulation
same,5-LO activity after wash-out,5-LO [1]; wash-out of compound,could be reinstated upon wash-out
same,IC50,"5-LO [2]; 1 mM DTT, read-out: IC50 (with DTT), 5-LO activity in neutrophil homogenates",90 nM
same,IC50,"5-LO [2]; absence of DTT, read-out: IC50 (without DTT), 5-LO activity in neutrophil homogenates",5200 nM
